Results from US20230085307A1, “PYRIDAZINONE COMPOUND AND HERBICIDE” (NISSAN CHEMICAL CORPORATION, priority 2019, published 2023).

Key:
[1] = test system: late watergrass; experiment: Test Example 1: herbicidal activity, application before weed generation under submerged conditions (Table 16, symbol A); assay type: in vivo, late watergrass (Echinochloa oryzicola); details: amount of applied herbicide 320 g/ha
Procedure, shortened: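 Alluvial soil was flooded to 4 cm depth, weed seeds were sown mixed and 2.5-leaf rice seedlings were transplanted. On sowing day, the compound's emulsion, diluted in water to a set dose, was applied to the water surface. Plants grew at 25–30 °C and were scored 0–5 after three weeks.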

[2] = test system: oval-leafed pondweed; experiment: Test Example 2: herbicidal activity, application during weed generation under submerged conditions (Table 17, symbol C); assay type: in vivo, oval-leafed pondweed (Monochoria vaginalis); details: AAH 320 g/ha; application during weed generation, submerged conditions
Procedure, shortened: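 Herbicide emulsion, diluted with water to the chosen amount, is applied onto 4 cm floodwater over alluvial soil where the weeds were co-sown and raised at 25–30° C. Application timing: 1–2 leaves. Assessment: three weeks afterwards.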

[3] = test system: Chinese sprangletop; experiment: Test Example 3: herbicidal effect by foliage application, Wagner pot (Table 18, symbol D); assay type: in vivo, chinese sprangletop (Leptochloa chinensis); details: for herbicidal effect on Chinese sprangletop (D): 320 g/ha; for Herbicidal effect on D (Chinese sprangletop), foliage application: amount of applied herbicide 320 g/ha
Procedure, shortened: (§1)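 Plants were sown in alluvial soil held under 0.1–0.5 cm standing water and grown 14 days in a greenhouse at 25–30 °C. An emulsifiable formulation, water-diluted to the set dose, was then sprayed onto the foliage, and effects were scored three weeks later using previously defined criteria.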

[4] = test system: rice flat sedge; experiment: Test Example 3: herbicidal effect by foliage application, Wagner pot (Table 18, symbol E); assay type: in vivo, rice flat sedge (Cyperus iria); details: for herbicidal effect on rice flat sedge (E): 320 g/ha; for Herbicidal effect on E (rice flat sedge), foliage application: amount of applied herbicide 320 g/ha
Procedure, shortened: as §1

[5] = test system: green foxtail; experiment: Test Example 4: herbicidal effect by soil treatment (Table 19, symbol G); assay type: in vivo, green foxtail (Setaria viridis); details: amount of applied herbicide 320 g/ha
Procedure, shortened: (§2)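 Pre-emergence style soil spray: seeds under ~1.5 cm sterilized diluvial soil received a uniform coat of emulsion diluted to the predetermined herbicide amount. Greenhouse 25–30° C; readout at week three on previously defined criteria.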

[6] = test system: wild oat; experiment: Test Example 4: herbicidal effect by soil treatment (Table 19, symbol I); assay type: in vivo, wild oat (Avena fatua); details: amount of applied herbicide 320 g/ha
Procedure, shortened: as §2

[7] = test system: Italian ryegrass; experiment: Test Example 4: herbicidal effect by soil treatment (Table 19, symbol K); assay type: in vivo, Italian ryegrass (Lolium multiflorum); details: amount of applied herbicide 320 g/ha
Procedure, shortened: as §2

[8] = test system: windgrass; experiment: Test Example 4: herbicidal effect by soil treatment (Table 19, symbol L); assay type: in vivo, windgrass (Apera spica-venti); details: amount of applied herbicide 320 g/ha
Procedure, shortened: as §2

[9] = test system: velvetleaf; experiment: Test Example 4: herbicidal effect by soil treatment (Table 19, symbol M); assay type: in vivo, velvetleaf (Abutilon theophrasti); details: amount of applied herbicide 320 g/ha
Procedure, shortened: as §2

[10] = test system: lambsquarters; experiment: Test Example 4: herbicidal effect by soil treatment (Table 19, symbol O); assay type: in vivo, lambsquarters (Chenopodium album); details: amount of applied herbicide 320 g/ha
Procedure, shortened: as §2

[11] = test system: persian speedwell; experiment: Test Example 4: herbicidal effect by soil treatment (Table 19, symbol R); assay type: in vivo, Persian speedwell (Veronica persica); details: amount of applied herbicide 320 g/ha
Procedure, shortened: as §2

[12] = test system: barnyard grass; experiment: Test Example 5: herbicidal effect by foliage application, plastic box (Table 20, symbol H); assay type: in vivo, barnyard grass (Echinochloa crus-galli); details: foliage application, 320 g/ha, three weeks after application
Procedure, shortened: (§3)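 Plants were sown into sterilized diluvial soil under about 1.5 cm cover and kept in a greenhouse at 25° C. to 30° C. Fourteen days on, foliage received an even spray of the diluted emulsion. Herbicidal or crop effect was judged three weeks afterwards.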

[13] = test system: Italian ryegrass; experiment: Test Example 5: herbicidal effect by foliage application, plastic box (Table 20, symbol K); assay type: in vivo, Italian ryegrass (Lolium multiflorum); details: foliage application, 320 g/ha, three weeks after application
Procedure, shortened: as §3

[14] = test system: windgrass; experiment: Test Example 5: herbicidal effect by foliage application, plastic box (Table 20, symbol L); assay type: in vivo, windgrass (Apera spica-venti); details: foliage application, 320 g/ha, three weeks after application
Procedure, shortened: as §3

[15] = test system: velvetleaf; experiment: Test Example 5: herbicidal effect by foliage application, plastic box (Table 20, symbol M); assay type: in vivo, velvetleaf (Abutilon theophrasti); details: foliage application, 320 g/ha, three weeks after application
Procedure, shortened: as §3

[16] = test system: chickweed; experiment: Test Example 5: herbicidal effect by foliage application, plastic box (Table 20, symbol P); assay type: in vivo, common chickweed (Stellaria media); details: foliage application, 320 g/ha, three weeks after application
Procedure, shortened: as §3

SMILES	Herbicidal effect, A: late watergrass [1]	herbicidal effect rating, C: oval-leafed pondweed [2]	herbicidal effect on Chinese sprangletop (D) [3]	herbicidal effect on rice flat sedge (E) [4]	G: green foxtail, herbicidal effect grade [5]	I: wild oat, herbicidal effect grade [6]	K: Italian ryegrass, herbicidal effect grade [7]	L: windgrass, herbicidal effect grade [8]	M: velvetleaf, herbicidal effect grade [9]	O: lambsquarters, herbicidal effect grade [10]	R: persian speedwell, herbicidal effect grade [11]	herbicidal effect on barnyard grass (H) [12]	herbicidal effect on Italian ryegrass (K) [13]	herbicidal effect on windgrass (L) [14]	herbicidal effect on velvetleaf (M) [15]	Herbicidal effect on D (Chinese sprangletop), foliage application [3]	Herbicidal effect on E (rice flat sedge), foliage application [4]	also measured
CCCC(=O)Oc1c(C)nn(C)c(=O)c1-c1c(-c2ccc(F)cc2)sc2cc(C)c(C)cc12 [5-089]	3 (Herbicidal rate of 40% or more and less than 70%)	0 (Herbicidal rate of 5% or less (almost no effect))	3 (Herbicidal rate of 40% or more and less than 70%)	3 (Herbicidal rate of 40% or more and less than 70%)	0 (Herbicidal rate of 5% or less (almost no effect))	0 (Herbicidal rate of 5% or less (almost no effect))	0 (Herbicidal rate of 5% or less (almost no effect))	4 (Herbicidal rate of 70% or more and less than 90%)	0 (Herbicidal rate of 5% or less (almost no effect))	0 (Herbicidal rate of 5% or less (almost no effect))	0 (Herbicidal rate of 5% or less (almost no effect))	0 (Herbicidal rate of 5% or less (almost no effect))	0 (Herbicidal rate of 5% or less (almost no effect))	0 (Herbicidal rate of 5% or less (almost no effect))	0 (Herbicidal rate of 5% or less (almost no effect))	–	–	–
COc1ccc(-c2oc3ccc(F)cc3c2-c2c(O)c(C)nn(C)c2=O)cc1 [Compound No. 9-020, 4-(5-fluoro-2-(4-methoxyphenyl)benzofuran-3-yl)-5-hydroxy-2,6-dimethylpyridazin-3(2H)-one]	5 (Herbicidal rate of 90% or more (almost completely withered))	3 (Herbicidal rate of 40% or more and less than 70%)	–	–	1 (Herbicidal rate of 5% or more and less than 20%)	2 (Herbicidal rate of 20% or more and less than 40%)	5 (Herbicidal rate of 90% or more (almost completely withered))	2 (Herbicidal rate of 20% or more and less than 40%)	2 (Herbicidal rate of 20% or more and less than 40%)	0 (Herbicidal rate of 5% or less (almost no effect))	5 (Herbicidal rate of 90% or more (almost completely withered))	5 (Herbicidal rate of 90% or more (almost completely withered))	4 (Herbicidal rate of 70% or more and less than 90%)	5 (Herbicidal rate of 90% or more (almost completely withered))	5 (Herbicidal rate of 90% or more (almost completely withered))	4 (Herbicidal rate of 70% or more and less than 90%)	5 (Herbicidal rate of 90% or more (almost completely withered))	–
CCCC(=O)Oc1c(C)nn(C)c(=O)c1-c1c(-c2ccc(C(F)(F)F)cc2)sc2cc(F)ccc12 [3-140]	5 (Herbicidal rate of 90% or more (almost completely withered))	3 (Herbicidal rate of 40% or more and less than 70%)	4 (Herbicidal rate of 70% or more and less than 90%)	5 (Herbicidal rate of 90% or more (almost completely withered))	–	–	–	–	–	–	–	–	–	–	–	–	–	Herbicidal effect by soil treatment, G: green foxtail [5]: 0 (Herbicidal rate of 5% or less (almost no effect)); Herbicidal effect by soil treatment, I: wild oat [6]: 0 (Herbicidal rate of 5% or less (almost no effect)); Herbicidal effect by soil treatment, K: Italian ryegrass [7]: 0 (Herbicidal rate of 5% or less (almost no effect)); Herbicidal effect by soil treatment, L: windgrass [8]: 0 (Herbicidal rate of 5% or less (almost no effect)); Herbicidal effect by soil treatment, M: velvetleaf [9]: 0 (Herbicidal rate of 5% or less (almost no effect)); Herbicidal effect by soil treatment, O: lambsquarters [10]: 3 (Herbicidal rate of 40% or more and less than 70%); Herbicidal effect by soil treatment, R: persian speedwell [11]: 0 (Herbicidal rate of 5% or less (almost no effect)); H: barnyard grass, herbicidal effect grade [12]: 3 (Herbicidal rate of 40% or more and less than 70%); K: Italian ryegrass, herbicidal effect grade [13]: 0 (Herbicidal rate of 5% or less (almost no effect)); M: velvetleaf, herbicidal effect grade [15]: 5 (Herbicidal rate of 90% or more (almost completely withered)); P: chickweed, herbicidal effect grade [16]: 5 (Herbicidal rate of 90% or more (almost completely withered))
CCCC(=O)Oc1c(C)nn(C)c(=O)c1-c1c(-c2ccc3c(c2)OCCO3)oc2ccc(C)cc12 [9-013]	3 (Herbicidal rate of 40% or more and less than 70%)	5 (Herbicidal rate of 90% or more (almost completely withered))	–	–	3 (Herbicidal rate of 40% or more and less than 70%)	0 (Herbicidal rate of 5% or less (almost no effect))	0 (Herbicidal rate of 5% or less (almost no effect))	0 (Herbicidal rate of 5% or less (almost no effect))	2 (Herbicidal rate of 20% or more and less than 40%)	0 (Herbicidal rate of 5% or less (almost no effect))	0 (Herbicidal rate of 5% or less (almost no effect))	0 (Herbicidal rate of 5% or less (almost no effect))	2 (Herbicidal rate of 20% or more and less than 40%)	0 (Herbicidal rate of 5% or less (almost no effect))	5 (Herbicidal rate of 90% or more (almost completely withered))	0 (Herbicidal rate of 5% or less (almost no effect))	3 (Herbicidal rate of 40% or more and less than 70%)	–
